Measured values as given in ChEMBL document CHEMBL5604062, “ASAP - ZIKV NS2B-NS3 protease fluorescence dose response” (2024).
“And” between values parts separate entries of the source, which are not always exact repeats. Identical values can stand only once.

Experiments:
Nonstructural protein 3 [1] = biological target: T1, Nonstructural protein 3 (Zika virus, UniProt A0A024AXB9); assay: Functional biochemical assay to identify treatments for viral infectious disease that targets Zika NS2B-NS3 protease. Utilizing a direct enzyme activity measurement method, reading the fluorescence intensity is used to characterize the relative potency of inhibitors as IC50.; design: species or system PRVABC59
T1 sequence (A0A024AXB9 whole entry): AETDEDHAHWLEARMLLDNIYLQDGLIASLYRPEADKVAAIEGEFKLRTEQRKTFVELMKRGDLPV

Nonstructural protein 3 [2] = biological target: T1, Nonstructural protein 3; assay: Functional biochemical assay to identify treatments for viral infectious disease that targets Zika NS2B-NS3 protease. Utilizing a direct enzyme activity measurement method, reading the fluorescence intensity is used to characterize the relative potency of inhibitors as IC50. Synthetic construct has been made based on Zika virus (strain PRVABC59) by Centre for Medicines Discovery, University of Oxford, and the assay has been performed by Enamine biological services, Bienta Ltd.The protocol is publicly available: dx.doi.org/10.17504/protocols.io.36wgqn273gk5/v1

SMILES | IC50 (Nonstructural protein 3 [1]) | IC50 (Nonstructural protein 3 [2])
O=C1Cc2c(cccc2C(=O)Nc2cccc(Cc3nn[nH]n3)c2)N1 | > 25000 nM | > 25000 nM
N#Cc1cccc(-c2nc3c(C(=O)Nc4cccnc4)cc(Cl)cc3[nH]2)c1 | – | > 25000 nM
C[C@H]1C(=O)Nc2ccc(C(=O)Nc3ccc4c(c3)CNC4)cc21 | 10700 nM | 4160 nM and 3340 nM
CC(=O)N[C@]1(C)C(=O)Nc2cc(F)cc(C(=O)Nc3ccc4c(c3)CNC4)c21 | 2380 nM | 3720 nM
O=C(Nc1cc2c(cn1)CNC2)c1cc(F)cc2[nH]ncc12 | 77 nM and 55 nM | 163 nM
O=C(Nc1cnc2c(c1)CNC2)c1cc(F)cc2[nH]ncc12 | 27 nM and 15 nM | 83 nM
CC(=O)N1CC[C@]2(C1)C(=O)Nc1cccc(C(=O)Nc3ccc4c(c3)CNC4)c12 | 126 nM | 714 nM
Cc1c(C(=O)Nc2cccc(CS(C)(=O)=O)c2)cc(C2CC2)n1C | > 25000 nM | > 25000 nM
N#Cc1cccc(-c2nc3c(C(=O)Nc4cccc(F)c4)cc(Cl)cc3[nH]2)c1 | > 25000 nM | > 25000 nM
N=C(N)NCCC[C@H](NC(=O)[C@H](Cc1ccc(CN)cc1)NC(=O)c1ccccc1)B(O)O | 508 nM and 353 nM and 260 nM and 186 nM and 245 nM and 211 nM (2×) and 238 nM and < 2.49 µM (9×) and 73 nM and 247 nM and 292 nM and 237 nM and 241 nM and 141 nM and 262 nM and 254 nM and 233 nM | 559 nM and 327 nM and 558 nM and 628 nM and 585 nM and 637 nM and 438 nM and 552 nM and 595 nM
O=C1Cc2c(cccc2C(=O)Nc2nc([C@H]3CCCOC3)cs2)N1 | > 25000 nM | > 25000 nM
NCCc1cccc(NC(=O)c2cccc3c2CC(=O)N3)c1 | 333 nM | 533 nM
Cc1c(C(=O)Nc2ccc3c(c2)C(=O)NC3)cc(C2CC2)n1C | > 25000 nM | > 25000 nM
N#Cc1cccc(-c2nc3c(C(=O)NCc4cccnc4)cc(Cl)cc3[nH]2)c1 | – | > 25000 nM
NCCCn1c(C2CC2)cc(C(=O)Nc2cc([C@H]3CCOC3)ccn2)c1C1CC1 | > 25000 nM | > 25000 nM
Nc1ccncc1-c1cc(F)cc(C(=O)Nc2ccc3c(c2)CNC3)c1 | 54 nM and 38 nM | 146 nM
NC(=O)COc1ccc(Br)cc1[C@H](Nc1ccc2c(c1)CNC2)C(=O)NCC(F)F | 69 nM and 55 nM | 193 nM and 233 nM
O=C(NCC(F)F)[C@H](Nc1ccc2c(c1)CNC2)c1cc(Br)ccc1Oc1ccc(Cl)c(Cl)c1 | 212 nM | 198 nM and 238 nM
N=C(N)NCCC[C@H](NC(=O)c1nccs1)C(=O)N[C@@H](CCCCN)C(=O)N[C@@H](C(N)=O)c1ccc(OCc2ccc(C(F)(F)F)cc2)cc1 | – | 6210 nM and 4390 nM and 8320 nM and 7700 nM and 6310 nM and 6150 nM and 5910 nM and 5860 nM and 5590 nM

Second part, the molecule after the results:

IC50 (Nonstructural protein 3 [1]) | IC50 (Nonstructural protein 3 [2]) | SMILES
– | > 25000 nM | N#Cc1cccc(-c2nc3c(C(=O)Nc4ccncc4)cc(Cl)cc3[nH]2)c1
77 nM and 66 nM | 130 nM and 131 nM | O=C1C[C@H](c2cccc(-c3cc(F)cc(C(=O)Nc4ccc5c(c4)CNC5)c3)c2)N1
> 25000 nM | > 25000 nM | Cc1c(C(=O)Nc2cccc(-c3ccoc3)c2)cc(C2CC2)n1C
9190 nM | 18100 nM and > 25000 nM | CC1(C)NCc2cc(NC(=O)c3cc(F)cc4[nH]ncc34)ccc21
> 25000 nM | > 25000 nM | N#Cc1cccc(-c2nc3c(C(=O)Nc4ccc(F)cc4)cc(Cl)cc3[nH]2)c1
> 25000 nM | > 25000 nM | Cn1nc(CNc2cc([C@H]3CCOC3)ccn2)cc1C1CC1
> 25000 nM | > 25000 nM | Cc1c(C(=O)Nc2cccc(-c3nc(C4CC4)no3)c2)cc(C2CC2)n1C
> 25000 nM | > 25000 nM | O=C1Cc2c(cccc2C(=O)Nc2ccc3c(c2)[C@H](O)CCO3)N1
> 25000 nM | > 25000 nM | CC(C)CNC(=O)c1cc(Cl)cc2[nH]c(-c3cccc(C#N)c3)nc12
1510 nM | 3580 nM and 3950 nM | C[C@H]1NCc2ccc(NC(=O)c3cc(Cl)cc4[nH]ncc34)cc21
> 25000 nM | > 25000 nM | O=C1Cc2c(cccc2C(=O)Nc2cccc(-c3cn[nH]c3)c2)N1
> 25000 nM | > 25000 nM | O=C1Cc2c(cccc2C(=O)Nc2ccc(N3CCOC3=O)nc2)N1
358 nM | 636 nM | O=C(NCC(F)F)[C@H](Nc1ccc2c(c1)CNC2)c1cc(Br)ccc1C1CC1
> 25000 nM | > 25000 nM | Cc1c(C(=O)Nc2cccc(CN3CCCC3=O)c2)cc(C2CC2)n1C
29 nM and 20 nM | 141 nM and 127 nM | O=C(NCC(F)F)[C@H](Nc1ccc2c(c1)CNC2)c1cc(Br)cc2cn[nH]c12
> 25000 nM | > 25000 nM | Cn1nc(CNc2cc(-c3cccnc3)ccn2)cc1C1CC1
> 25000 nM | > 25000 nM | O=C1Cc2c(cccc2C(=O)Nc2ccnn2Cc2ccncc2)N1
44 nM and 37 nM | 201 nM | O=C(NCC(F)F)[C@H](Nc1ccc2c(c1)CNC2)c1cc(Br)cc2nc[nH]c12
> 25000 nM | > 25000 nM | N#Cc1cccc(-c2nc3c(C(=O)Nc4ccccn4)cc(Cl)cc3[nH]2)c1
> 25000 nM | > 25000 nM | Cc1cc(NC(=O)c2cc(C3CC3)n(C)c2C)ccc1OC1CCOCC1
> 25000 nM | > 25000 nM | Cc1c(C(=O)Nc2cc(C3CCOCC3)ccn2)cc(C2CC2)n1C
167 nM | 1070 nM and 985 nM | CC(C)(C)NC(=O)C[C@H]1NCc2cc(NC(=O)c3cc(Cl)cc4[nH]ncc34)ccc21
650 nM | 2210 nM and 1700 nM | CS(=O)(=O)NC(=O)C[C@H]1NCc2cc(NC(=O)c3cc(Cl)cc4[nH]ncc34)ccc21
> 25000 nM | > 25000 nM | CC(C)(C)OC(=O)N1Cc2ccc(N[C@H](C(=O)O)c3cc(Cl)cc4[nH]ncc34)cc2C1
19 nM and 13 nM | 106 nM and 91 nM | O=C(NCC(F)F)[C@H](Nc1cc2c(cc1Br)CNC2)c1cc(Cl)cc(C2CC2)c1
